Results from patent US20250368633A1, “AZEPINE FUSED RING COMPOUND AS RIPK1 INHIBITOR AND USE THEREOF” (ARTIVILA BIOPHARMA, priority 2022, published 2025).

Columns and labels:
RIPK1 kinase = target: T1, RIPK1 kinase (Homo sapiens, UniProt Q13546); assay: In vitro RIPK1 kinase activity assay (ADP-Glo), inhibition by compounds at 1 μM; format: biochemical; details: compound 1 μM; ATP 10 μM; MBP substrate 100 μg/mL; read-out: RIPK1 kinase activity inhibition rate range
T1 construct: purchased Promega VA7593
T1 sequence (Q13546 1-671): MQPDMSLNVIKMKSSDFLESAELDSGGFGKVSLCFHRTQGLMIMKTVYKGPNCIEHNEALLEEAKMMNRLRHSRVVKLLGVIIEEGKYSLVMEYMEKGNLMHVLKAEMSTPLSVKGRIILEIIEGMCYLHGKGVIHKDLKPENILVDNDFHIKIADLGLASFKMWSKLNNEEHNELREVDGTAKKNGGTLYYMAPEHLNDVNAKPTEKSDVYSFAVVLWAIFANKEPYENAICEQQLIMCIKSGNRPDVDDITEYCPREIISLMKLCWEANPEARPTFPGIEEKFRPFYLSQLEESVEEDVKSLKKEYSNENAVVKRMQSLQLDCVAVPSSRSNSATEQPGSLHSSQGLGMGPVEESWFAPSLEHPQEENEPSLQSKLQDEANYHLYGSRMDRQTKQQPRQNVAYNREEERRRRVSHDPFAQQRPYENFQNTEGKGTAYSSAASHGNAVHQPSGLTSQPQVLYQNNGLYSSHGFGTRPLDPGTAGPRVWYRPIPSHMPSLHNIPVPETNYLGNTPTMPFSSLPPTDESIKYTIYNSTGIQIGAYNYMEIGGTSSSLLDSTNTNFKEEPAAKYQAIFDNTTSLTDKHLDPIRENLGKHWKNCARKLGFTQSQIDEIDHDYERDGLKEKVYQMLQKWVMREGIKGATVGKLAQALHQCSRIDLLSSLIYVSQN
Outline: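 Read by ADP-Glo chemiluminescence as percent inhibition: RIPK1 kinase, 15-min room-temperature compound preincubation, then 1-h reaction with MBP (100 μg/mL final) and ATP (10 μM final). Enzyme level was set by titration.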

U937 cells = assay: EC50 of necroptosis inhibition in U937 cells (TSZ-induced, CellTiter-Glo); format: cell-based; details: Homo sapiens, U-937; TSZ (hTNF-α, SM-164, Z-VAD-FMK) 20 hours; 10 concentration points; read-out: EC50 intervals of necroptosis inhibition in U937 cells
Outline: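 Luminescent ATP readout (CellTiter-Glo) after 20 h gave viability of TSZ-challenged U937 cells; compounds were added 15 min ahead of TNF-α/SM-164/Z-VAD-FMK. EC50 derived by variable-slope nonlinear regression of inhibition relative to no-TSZ and TSZ-alone controls.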

| inhibition at 1 µM (RIPK1 kinase) [%] | SMILES | EC50 (U937 cells) [nM] |
| --- | --- | --- |
| ≥ 75 | COC(=O)C1(C#Cc2ccc3c(c2)N(C)C(=O)[C@@H](NC(=O)C(=O)NCCc2ccccc2)CO3)CC1 [Example 96, methyl (S)-1-((5-methyl-4-oxo-3-(2-oxo-2-(phenethylamino)acetamido)-2,3,4,5-tetrahydrobenzo[b][1,4]oxazepin-7-yl)ethynyl)cyclopropane-1-carboxylate] | < 100 |
| ≥ 75 | CN1C(=O)[C@@H](NC(=O)C(=O)NCCc2cccs2)COc2ccccc21 [Example 97, (S)—N^1-(5-methyl-4-oxo-2,3,4,5-tetrahydrobenzo[b][1,4]oxazepin-3-yl)-N^2-(2-(thiophen-2-yl)ethyl)oxalamide] | 100 to 500 |
| ≥ 75 | CN1C(=O)[C@@H](NC(=O)C(=O)NCCc2ccsc2)COc2ccccc21 [Example 98, (S)—N-(5-methyl-4-oxo-2,3,4,5-tetrahydrobenzo[b][1,4]oxazepin-3-yl)-N^2-(2-(thiophen-3-yl)ethyl)oxalamide] | 100 to 500 |
